Read-outs that look alike come from different tables or passages of the source.
How the values were obtained:
Assay type in all cases: biochemical
LmDHFR = molecular target: T1, LmDHFR (Leishmania major, UniProt P07382); experiment: Spectrophotometric enzyme inhibition assay, recombinant LmDHFR
T1 construct: The DNA fragment encoding LmDHFR was amplified by Phusion DNA polymerase; His6 (N); made in house; host or cells: E. coli BL21(DE3), vector pET 11D::LmDHFRHis
T1 sequence (P07382 26-229 limits assumed): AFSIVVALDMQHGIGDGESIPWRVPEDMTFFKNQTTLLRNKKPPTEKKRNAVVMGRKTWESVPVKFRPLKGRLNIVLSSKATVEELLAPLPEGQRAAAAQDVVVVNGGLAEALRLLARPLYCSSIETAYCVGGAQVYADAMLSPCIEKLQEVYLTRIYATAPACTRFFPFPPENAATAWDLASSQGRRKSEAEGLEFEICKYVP
Method: (§1) Based on the in vitro assays against TbPTR1 and LmPTR1 performed in the previous works of our group, as well as the in silico results obtained from the current study, a total of 47 natural products were tested against the target enzymes. […] The concentration-effect curves for the IC50 and EC50 values that were obtained in the present study are depicted in Supplementary Materials Figures S21–S42.
The TbDHFR concentration was measured to be 0.04 mg/mL and a specific activity of 38.1 U/mg was calculated. The concentration of LmDHFR was 0.05 mg/mL with a specific activity of 56.2 U/mg. All measurements were carried out using the saturating concentrations for dihydrofolate (50 μM) and NADPH (150 μM) in Buffer C (50 mM Tris/HCl (pH 7.6), 250 mM NaCl, 10 mM BME). The saturating conditions for TbDHFR and LmDHFR were determined using the diagrams depicted in Figures S17 and S19 in the Supplementary Materials.
(§2) The inhibitory effect of the selected natural products was investigated by testing the DMSO solution of each compound at a constant concentration of 100 μM for TbPTR1 and 50 μM for LmPTR1, TbDHFR, and LmDHFR, as well as hDHFR. The concentrations of the cofactor and substrates were set at the previously determined saturating conditions (Section 4.2.5). Each test compound was incubated for 20 min with the respective enzyme and NADPH to ensure a sufficient interaction time before the reaction was induced by the addition of the substrate. The enzymatic activity was determined in duplicates and correlated with a reference that contained just DMSO, instead of an inhibitor. The enzymatic activity of the reference was normalized to 100%.
(§3) The half-maximal inhibitory concentration (IC50) of the natural products was determined in triplicate, using at least five different inhibitor concentrations against a reference containing no inhibitor. The enzymatic activity was documented and analyzed and the IC50 value was determined by nonlinear regression using GraphPad Prism 9 (GraphPad Software Inc., La Jolla, CA, USA).

LmPTR1 = molecular target: T2, LmPTR1 (Leishmania major, UniProt Q01782); experiment: Spectrophotometric enzyme inhibition assay, recombinant LmPTR1
T2 construct: His6 (N); made in house; host or cells: E. coli BL21 (DE3), vector pET 15b::LmPTR1His (strain from the group of M. Paola Costi, Modena)
T2 sequence (Q01782 1-288): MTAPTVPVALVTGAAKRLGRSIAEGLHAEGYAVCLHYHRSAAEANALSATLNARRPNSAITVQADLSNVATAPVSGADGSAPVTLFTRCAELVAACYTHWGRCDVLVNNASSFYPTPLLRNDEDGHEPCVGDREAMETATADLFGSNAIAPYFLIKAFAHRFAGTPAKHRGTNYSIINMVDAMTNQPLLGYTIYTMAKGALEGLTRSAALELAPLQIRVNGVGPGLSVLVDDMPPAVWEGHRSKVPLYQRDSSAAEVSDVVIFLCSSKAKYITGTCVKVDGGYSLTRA
Method: as §1
(§4) The used TbPTR1 concentration was 3.23 mg/mL, with a specific activity of 0.03 U/mg. The measurements were carried out using the enzyme’s individual saturating concentrations for folic acid (8 μM) and NADPH (150 μM) in Buffer A (50 mM Tris/HCl (pH 7.6), 250 mM NaCl). For LmPTR1, the protein concentration was 5.02 mg/mL and the specific activity was calculated to be 0.29 U/mg. Buffer B (50 mM NaH2PO4 (pH 6.0), 100 mM NaCl) was used for all LmPTR1 measurements and the saturating concentrations amounted to 50 μM of folic acid and 200 μM of NADPH. The saturating conditions of the PTR1 enzymes were determined using the diagrams depicted in Figures S16 and S18 in the Supplementary Materials.
as §2, §3

TbPTR1 = molecular target: T3, TbPTR1 (Trypanosoma brucei brucei, UniProt O76290); experiment: Spectrophotometric enzyme inhibition assay, recombinant TbPTR1; conditions: for EC50: read-out: EC50 TbPTR1 (footnote a)
T3 construct: His6 (N); made in house; host or cells: E. coli BL21 (DE3), vector pET 15b::TbPTR1His (strain from the group of M. Paola Costi, Modena)
T3 sequence (O76290 1-268): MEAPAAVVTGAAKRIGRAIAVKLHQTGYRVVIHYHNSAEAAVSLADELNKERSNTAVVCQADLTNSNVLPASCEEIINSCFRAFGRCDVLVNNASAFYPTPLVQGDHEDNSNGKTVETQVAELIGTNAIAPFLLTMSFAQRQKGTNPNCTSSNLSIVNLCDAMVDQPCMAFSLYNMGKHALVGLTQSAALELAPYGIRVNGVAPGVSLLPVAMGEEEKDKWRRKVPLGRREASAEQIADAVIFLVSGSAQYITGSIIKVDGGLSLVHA
Method: as §1, §4, §2, §3

TbDHFR = molecular target: T4, TbDHFR (Trypanosoma brucei brucei, UniProt Q27783); experiment: Spectrophotometric enzyme inhibition assay, recombinant TbDHFR
T4 construct: pET 11D::TbDHFRHis vector design for the recombinant overexpression of TbDHFR in E. coli; His; made in house; host or cells: E. coli BL21(DE3), vector pET 11D::TbDHFRHis
Method: Based on the in vitro assays against TbPTR1 and LmPTR1 performed in the previous works of our group, as well as the in silico results obtained from the current study, a total of 47 natural products were tested against the target enzymes.
The saturating conditions for TbDHFR and LmDHFR were determined using the diagrams depicted in Figures S17 and S19 in the Supplementary Materials.
as §2, §3

hDHFR = molecular target: T5, hDHFR (Homo sapiens, UniProt P00374); experiment: Spectrophotometric enzyme inhibition assay, recombinant hDHFR (selectivity); conditions: for inhibition at 50 µM: set compound concentration of 50 μM, read-out: relative inhibition of hDHFR
T5 construct: His; host or cells: E. coli BL21 (DE3), vector pET 15b::hDHFRHis
T5 sequence (P00374 1-187): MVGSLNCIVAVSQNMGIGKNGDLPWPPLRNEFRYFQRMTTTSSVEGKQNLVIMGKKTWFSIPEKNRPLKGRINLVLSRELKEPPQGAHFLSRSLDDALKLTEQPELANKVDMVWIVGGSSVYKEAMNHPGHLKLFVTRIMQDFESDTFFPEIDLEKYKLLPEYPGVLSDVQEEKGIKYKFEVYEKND
Method: For 15 compounds, there was enough substance available to be tested in selectivity studies against hDHFR.
The used hDHFR concentration was 0.64 mg/mL, with a specific activity of 0.62 U/mg. All measurements were carried out using the saturating concentrations for dihydrofolate (100 μM) and NADPH (50 μM) in Buffer C (50 mM Tris/HCl (pH 7.6), 250 mM NaCl, 10 mM BME). The saturating conditions for hDHFR were determined using the diagrams depicted in Figure S20 in the Supplementary Materials.
as §2, §3

T4 sequence (Q27783 28-238 limits assumed): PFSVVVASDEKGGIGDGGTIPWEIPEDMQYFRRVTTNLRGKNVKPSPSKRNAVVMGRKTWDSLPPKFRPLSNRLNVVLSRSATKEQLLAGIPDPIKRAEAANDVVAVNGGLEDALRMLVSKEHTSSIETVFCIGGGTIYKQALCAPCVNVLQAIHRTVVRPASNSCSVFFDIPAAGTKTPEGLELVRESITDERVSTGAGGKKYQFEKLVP

Row | IC50 (LmPTR1; read-out: IC50 LmPTR1) [µM] | IC50 (TbPTR1; read-out: IC50 TbPTR1) [µM] | IC50 (TbDHFR; read-out: IC50 TbDHFR) [µM] | IC50 (hDHFR) [µM] | Compound | other results
1 | – | 21.7 | – | – | C=CC/C=C\C/C=C\CCCCCCCc1cccc(O)c1C(=O)O [Compound 12] | –
2 | > 50 | – | 2.9 | – | CC(C)=CCC/C(C)=C/COc1ccc2oc3cc(O)cc(O)c3c(=O)c2c1 [Compound 15] | EC50 (TbPTR1): 32.4 µM
3 | – | 58.6 | > 50 | – | O=c1[nH]c(=O)n([C@@H]2O[C@H](CO)[C@@H](O)[C@H]2O)c2nc(-c3ccc(Cl)cc3)cnc12 [Compound 18] | –
4 | – | 28.3 | 2.9 | > 50 | CCC(C)C(=O)c1c(O)c(C/C=C(\C)CCC=C(C)C)c(O)c2c([C@H](CC)OC(C)=O)cc(=O)oc12 (some centres unmarked) [Compound 20, surangin B] | EC50 (LmDHFR; read-out: EC50 LmDHFR (footnote a)): 4.7 µM; EC50 (LmPTR1; read-out: EC50 LmPTR1 (footnote a)): 35.1 µM
5 | 30.2 | – | > 50 | > 50 | COc1cc(C2OC(=O)C3C(c4ccc(O)c(OC)c4)OC(=O)C23)ccc1O (centres unmarked) [Compound 22] | IC50 (LmDHFR; read-out: IC50 LmDHFR): > 50 µM; EC50 (TbPTR1): 37.8 µM

More lines, now with the values behind:

Row | Compound | IC50 (LmPTR1; read-out: IC50 LmPTR1) [µM] | IC50 (TbPTR1; read-out: IC50 TbPTR1) [µM] | IC50 (TbDHFR; read-out: IC50 TbDHFR) [µM] | IC50 (hDHFR) [µM] | other results
6 | OC[C@H]1O[C@@H](Oc2c(O)cc(O)cc2/C=C/c2ccc(O)cc2)[C@H](O)[C@@H](O)[C@@H]1O [Compound 10] | > 50 | 83.6 | > 50 | – | IC50 (LmDHFR; read-out: IC50 LmDHFR): > 50 µM
7 | CCC/C=C\C/C=C\CCCCCCCc1cccc(O)c1C(=O)O [Compound 11] | 10.2 | 20.1 | 0.2 | 2.4 | IC50 (LmDHFR; read-out: IC50 LmDHFR): 2.6 µM; inhibition at 50 µM (hDHFR): > 50%
8 | COc1c(O)cc2c(=O)c3c(O)cc(O)c(CC=C(C)C)c3oc2c1CC=C(C)C [Compound 13] | – | 74.4 | 0.6 | – | –
9 | CC(C)=CCc1c(O)cc2oc3cc(O)c(O)c(CC=C(C)C)c3c(=O)c2c1O [Compound 14, g-mangostin] | – | – | – | 2.7 | IC50 (LmDHFR): 1.5 µM; IC50 (LmPTR1): 10 µM; IC50 (TbPTR1): 71 µM; inhibition at 50 µM (hDHFR): > 50%; IC50 (TbDHFR): 0.2 µM
10 | CC(C)=CCc1c(O)ccc(C(=O)CCc2ccc(O)cc2)c1O [Compound 16] | > 50 | 64.6 | 11.7 | – | –
11 | COc1ccc2c(c1)CCN=C2Cc1cc(OCc2ccccc2)c(OC)cc1C [Compound 19] | – | 75.1 | > 50 | – | –
12 | COc1c(CC=C(C)C)c(O)c([C@H](CC(C)C)c2c(O)c(CC=C(C)C)c(O)c(C(C)=O)c2O)c(O)c1C(C)=O [Compound 21, acrovestone] | > 50 | – | 2.1 | 19.8 | EC50 (TbPTR1): 36.8 µM; inhibition at 50 µM (hDHFR): > 50%
